From patent US9957271B2, “Substituted bicyclic aza-heterocycles and analogues as sirtuin modulators” (GlaxoSmithKline, LLC, priority 2012, dated 2018)

Target: T1, SIRT1 (Homo sapiens, UniProt Q96EB6)
T1 sequence (Q96EB6 1-747): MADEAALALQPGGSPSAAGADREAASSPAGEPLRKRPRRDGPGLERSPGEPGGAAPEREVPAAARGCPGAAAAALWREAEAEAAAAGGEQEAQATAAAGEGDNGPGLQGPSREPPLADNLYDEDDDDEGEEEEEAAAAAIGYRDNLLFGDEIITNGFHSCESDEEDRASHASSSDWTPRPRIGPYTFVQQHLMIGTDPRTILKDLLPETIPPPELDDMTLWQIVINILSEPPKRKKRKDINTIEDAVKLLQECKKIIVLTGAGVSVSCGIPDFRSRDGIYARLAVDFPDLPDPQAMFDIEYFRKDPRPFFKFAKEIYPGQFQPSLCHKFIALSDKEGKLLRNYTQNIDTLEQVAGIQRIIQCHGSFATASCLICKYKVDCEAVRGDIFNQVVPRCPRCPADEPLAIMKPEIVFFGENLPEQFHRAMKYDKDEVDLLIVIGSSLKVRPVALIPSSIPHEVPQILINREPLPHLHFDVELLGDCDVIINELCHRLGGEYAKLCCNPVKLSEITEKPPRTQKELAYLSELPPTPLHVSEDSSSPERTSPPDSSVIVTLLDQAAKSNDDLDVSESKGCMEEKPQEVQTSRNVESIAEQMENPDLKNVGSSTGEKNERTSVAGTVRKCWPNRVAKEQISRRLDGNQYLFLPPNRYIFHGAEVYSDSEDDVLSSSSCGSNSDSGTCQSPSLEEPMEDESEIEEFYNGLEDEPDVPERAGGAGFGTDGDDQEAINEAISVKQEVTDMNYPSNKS
Assay: Trp mass spectrometry assay of SIRT1 activity
Format: biochemical
Details: Trp assay; for Trp EC1.5 (μM): concentration giving 150% activation of SIRT1; for Emax: percent maximum fold activation, read-out: Trp % Fold Act
Description: Mass spectrometry based assays were used to identify modulators of SIRT1 activity. The TAMRA based assay utilized a peptide having 20 amino acid residues as follows: Ac-EE-K(biotin)-[…](Ac)NleSTEG-K(5TMR)-EE-NH2 (SEQ ID NO: 1), wherein K(Ac) is an acetylated lysine residue and Nle is a norleucine. The peptide was labeled with the fluorophore 5TMR (excitation 540 nm/emission 580 nm) at the C-terminus. The sequence of the peptide substrate was based on p53 with several modifications. In addition, the methionine residue naturally present in the sequence was replaced with the norleucine because the methionine may be susceptible to oxidation during synthesis and purification. The Trp based assay utilized a peptide having an amino acid residues as follows: Ac-R-H-K-K(Ac)-W-NH2 (SEQ ID NO: 2).
The Trp mass spectrometry assay was conducted as follows. 0.5 μM peptide substrate and 120 μM βNAD^+ were incubated with 10 nM SIRT1 for 25 minutes at 25° C. in a reaction buffer (50 mM HEPES pH 7.5, […], 1 mM DTT, 0.05% BSA). The SIRT1 protein was obtained by cloning the SirT1 gene into a T7-promoter containing vector, which was then expressed in BL21(DE3) bacterial cells and purified as described in further detail below. Test compound was added at varying concentrations to this reaction mixture and the resulting reactions were monitored. After the 25 minute incubation with SIRT1, 10 μL of 10% formic acid was added to stop the reaction. The resulting reactions were sealed and frozen for later mass spec analysis. The relative SIRT1 activity was then determined by measuring the amount of O-acetyl-ADP-ribose (OAADPR) formed (or, alternatively, the amount of deacetylated Trp peptide generated) by the NAD-dependent sirtuin deacetylation reaction in the presence of varying concentrations of the test compound versus control reactions lacking the test compound. The degree to which the test agent activated deacetylation by SIRT1 was expressed as EC1.5 (i.e., the concentration of compound required to increase SIRT1 activity by 50% over the control lacking test compound), and Percent Maximum Activation (i.e., the maximum activity relative to control (100%) obtained for the test compound).
A control for inhibition of sirtuin activity was conducted by adding 1 μL of 500 mM nicotinamide as a negative control at the start of the reaction (e.g., permits determination of maximum sirtuin inhibition). A control for activation of sirtuin activity was conducted using 10 nM of sirtuin protein, with 1 μL of DMSO in place of compound, to determine the amount of deacetylation of the substrate at a given time point within the linear range of the assay. This time point was the same as that used for test compounds and, within the linear range, the endpoint represents a change in velocity.
For the above assay, SIRT1 protein was expressed and purified as follows. The SirT1 gene was cloned into a T7-promoter containing vector and transformed into BL21(DE3). The protein was expressed by induction with 1 mM IPTG as an N-terminal His-tag fusion protein at 18° C. overnight and harvested at 30,000×g. Cells were lysed with lysozyme in lysis buffer (50 mM Tris-HCl, 2 mM Tris[2-carboxyethyl]phosphine (TCEP), 10 μM ZnCl2, 200 mM NaCl) and further treated with sonication for […] for complete lysis. The protein was purified over a Ni-NTA column (Amersham) and fractions containing pure protein were pooled, concentrated and run over a sizing column (Sephadex S200 26/60 global). The peak containing soluble protein was collected and run on an Ion-exchange column (MonoQ). Gradient elution (200 mM-500 mM NaCl) yielded pure protein. This protein was concentrated and dialyzed against dialysis buffer (20 mM Tris-HCl, 2 mM TCEP) overnight. The protein was aliquoted and frozen at −80° C. until further use.

Row | SMILES | Trp EC1.5 (μM) | Emax [%]
1 | Cc1nc2ccc(N3CC[C@H](F)C3)nn2c1C(=O)Nc1cccnc1 [Compound 841] | A (EC1.5<1 μM) | ≥ 350
2 | Cc1nc2c(OC[C@H](O)CO)cc(-c3ccccc3C(F)(F)F)nn2c1C(=O)Nc1ccccn1 [Compound 842] | A (EC1.5<1 μM) | ≥ 350
3 | Cc1nc2c(OC[C@H](O)CO)cc(-c3ccccc3C(F)(F)F)nn2c1C(=O)Nc1ccncc1F [Compound 843] | A (EC1.5<1 μM) | ≥ 350
4 | Cc1nc2ccc(N3CC[C@H](F)C3)nn2c1C(=O)Nc1ccc(F)cn1 [Compound 844] | B (EC1.5 1-25 μM) | < 350
5 | Cc1nc2ccc(N3CC[C@H](F)C3)nn2c1C(=O)Nc1cnccn1 [Compound 845] | B (EC1.5 1-25 μM) | < 350
6 | Cc1nc2ccc(N3CC[C@H](F)C3)nn2c1C(=O)Nc1ccncc1F [Compound 846] | A (EC1.5<1 μM) | < 350
7 | O=C(Nc1ccccn1)c1cnc2ccc(-c3cccc(OC[C@H](O)CO)c3)nn12 [Compound 847] | A (EC1.5<1 μM) | ≥ 350
8 | Cc1cccc(NC(=O)c2cnc3ccc(-c4cccc(OC[C@H](O)CO)c4)nn23)n1 [Compound 848] | A (EC1.5<1 μM) | ≥ 350
9 | Cc1cccc(NC(=O)c2c(C)nc3c(OC[C@H](O)CO)cc(-c4ccccc4C(F)(F)F)nn23)n1 [Compound 849] | A (EC1.5<1 μM) | ≥ 350
10 | Cc1cc(NC(=O)c2c(C)nc3c(OC[C@H](O)CO)cc(-c4ccccc4C(F)(F)F)nn23)nc(C)n1 [Compound 850] | A (EC1.5<1 μM) | ≥ 350
11 | O=C(Nc1ccncn1)c1cnc2ccc(N3CC[C@H](F)C3)nn12 [Compound 851] | B (EC1.5 1-25 μM) | < 350
12 | Cc1nc2ccc(N3CC[C@H](F)C3)nn2c1C(=O)Nc1ncccn1 [Compound 852] | B (EC1.5 1-25 μM) | ≥ 350
13 | O=C(Nc1cnccn1)c1cnc2ccc(N3CC[C@H](F)C3)nn12 [Compound 853] | C (EC1.5>25 μM) | < 350
14 | O=C(Nc1ncccn1)c1cnc2ccc(N3CC[C@H](F)C3)nn12 [Compound 854] | B (EC1.5 1-25 μM) | < 350
15 | Cc1nc2ccc(N3CC[C@H](F)C3)nn2c1C(=O)Nc1ccncn1 [Compound 855] | B (EC1.5 1-25 μM) | ≥ 350
16 | O=C(Nc1cccnn1)c1cnc2ccc(N3CC[C@H](F)C3)nn12 [Compound 856] | B (EC1.5 1-25 μM) | < 350
17 | Cc1nc2ccc(N3CC[C@H](F)C3)nn2c1C(=O)Nc1cccnn1 [Compound 857] | A (EC1.5<1 μM) | ≥ 350
18 | O=C(Nc1cccnc1)c1cnc2ccc(-c3cccc(OC[C@H](O)CO)c3)nn12 [Compound 858] | B (EC1.5 1-25 μM) | < 350
19 | Cc1ccnc(NC(=O)c2c(C)nc3c(OC[C@H](O)CO)cc(-c4ccccc4C(F)(F)F)nn23)c1 [Compound 859] | A (EC1.5<1 μM) | ≥ 350
20 | Cc1cc(NC(=O)c2c(C)nc3c(OC[C@H](O)CO)cc(-c4ccccc4C(F)(F)F)nn23)cc(C)n1 [Compound 860] | A (EC1.5<1 μM) | ≥ 350

Now from value to compound:

Row | Trp EC1.5 (μM) | Emax [%] | SMILES
21 | A (EC1.5<1 μM) | ≥ 350 | Cc1cnc(NC(=O)c2c(C)nc3c(OC[C@H](O)CO)cc(-c4ccccc4C(F)(F)F)nn23)s1 [Compound 861]
22 | A (EC1.5<1 μM) | ≥ 350 | Cc1nc2c(OC[C@H](O)CO)cc(-c3ccccc3C(F)(F)F)nn2c1C(=O)Nc1cccnc1 [Compound 862]
23 | A (EC1.5<1 μM) | ≥ 350 | Cc1nc2c(OC[C@H](O)CO)cc(-c3ccccc3C(F)(F)F)nn2c1C(=O)Nc1ccncc1 [Compound 863]
24 | A (EC1.5<1 μM) | ≥ 350 | Cc1cncc(NC(=O)c2c(C)nc3c(OC[C@H](O)CO)cc(-c4ccccc4C(F)(F)F)nn23)c1 [Compound 864]
25 | A (EC1.5<1 μM) | ≥ 350 | Cc1ccc(NC(=O)c2c(C)nc3c(OC[C@H](O)CO)cc(-c4ccccc4C(F)(F)F)nn23)cn1 [Compound 865]
26 | B (EC1.5 1-25 μM) | ≥ 350 | CN(C)[C@H]1CCN(c2ccc3ncc(C(=O)Nc4ccccn4)n3n2)C1 [Compound 866]
27 | B (EC1.5 1-25 μM) | ≥ 350 | Cc1nc2ccc(N3CC[C@H](N(C)C)C3)nn2c1C(=O)Nc1ccccn1 [Compound 867]
28 | B (EC1.5 1-25 μM) | < 350 | CN(C)[C@H]1CCN(c2ccc3ncc(C(=O)Nc4cccnc4)n3n2)C1 [Compound 868]
29 | B (EC1.5 1-25 μM) | < 350 | CN(C)[C@H]1CCN(c2ccc3ncc(C(=O)Nc4ccncc4F)n3n2)C1 [Compound 869]
30 | C (EC1.5>25 μM) | < 350 | Cc1nc2ccc(N3CC[C@H](N(C)C)C3)nn2c1C(=O)Nc1ccncc1F [Compound 870]
31 | B (EC1.5 1-25 μM) | < 350 | Cc1nc2ccc(N3CC[C@H](N(C)C)C3)nn2c1C(=O)Nc1cnccn1 [Compound 871]
32 | C (EC1.5>25 μM) | < 350 | Cc1nc2ccc(N3CC[C@H](N(C)C)C3)nn2c1C(=O)Nc1ccc(F)cn1 [Compound 872]
33 | B (EC1.5 1-25 μM) | ≥ 350 | CN(C)[C@H]1CCN(c2ccc3ncc(C(=O)Nc4cnccn4)n3n2)C1 [Compound 873]
34 | A (EC1.5<1 μM) | < 350 | CN(C)[C@H]1CCN(c2ccc3ncc(C(=O)Nc4ccc(F)cn4)n3n2)C1 [Compound 874]
35 | C (EC1.5>25 μM) | < 350 | Cc1cc(NC(=O)c2cnc3ccc(-c4cccc(OC[C@H](O)CO)c4)nn23)ccn1 [Compound 875]
36 | A (EC1.5<1 μM) | ≥ 350 | CN(C)c1cccc(NC(=O)c2cnc3ccc(-c4cccc(OC[C@H](O)CO)c4)nn23)n1 [Compound 876]
37 | B (EC1.5 1-25 μM) | < 350 | Cc1nc2ccc(N3CC[C@H](N(C)C)C3)nn2c1C(=O)Nc1cccnc1 [Compound 877]
38 | B (EC1.5 1-25 μM) | < 350 | CN(C)c1ccnc(NC(=O)c2cnc3ccc(-c4cccc(OC[C@H](O)CO)c4)nn23)c1 [Compound 878]
39 | B (EC1.5 1-25 μM) | < 350 | CN(C)[C@H]1CCN(c2ccc3ncc(C(=O)Nc4cccnn4)n3n2)C1 [Compound 879]
